Assay [1] addresses T1, CCR1 (Homo sapiens, UniProt P32246).
T1 construct: Whole blood is collected from a pregnant person into an EDTA-coated collection tube; endogenous in cells; host or cells: total peripheral leukocytes from pregnant women in term labour
T1 sequence (P32246 1-355): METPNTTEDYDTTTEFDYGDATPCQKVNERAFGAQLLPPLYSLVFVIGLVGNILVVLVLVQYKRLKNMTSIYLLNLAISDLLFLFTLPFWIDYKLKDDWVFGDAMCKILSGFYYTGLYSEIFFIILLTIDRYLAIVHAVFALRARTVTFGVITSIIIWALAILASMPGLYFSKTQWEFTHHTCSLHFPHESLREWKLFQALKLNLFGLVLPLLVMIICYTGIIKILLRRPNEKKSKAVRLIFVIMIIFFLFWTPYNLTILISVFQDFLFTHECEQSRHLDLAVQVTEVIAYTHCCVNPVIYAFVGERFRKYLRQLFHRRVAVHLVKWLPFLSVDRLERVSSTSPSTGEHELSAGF
Description: Term leukocyte chemotaxis towards TL homogenized extracts (LMA), CCR1 inhibition. To be noted: increasing concentrations, FIG. 18. The assay is classed as cell-based. Here is the method:
(§1) Chemotaxis Assay: Chemoattractants (50 μL) are loaded into the lower wels of a simple, resin 3D printed, 3-well chemotaxis chamber and a polycarbonate filter with 3 μm pores (Neuro Probe Inc., MD, USA) is placed on top of the wells. A silicone gasket with holes for each well is positioned on top of the filter and the upper chamber is lowered onto the silicone gasket, creating a tight seal. Total leukocytes (100 μL) are loaded into the wells of the upper chamber and the apparatus is incubated at 90 min at 37 C in 5% CO2. The apparatus is then disassembled and leukocytes that have migrated through the filter into the lower chamber are quantified using a hemocytometer, flow cytometry or fluorescence spectrometry.
(§2) We will use SB 225002 (CXCR2 antagonist) and J 113863 (CCR1 antagonist), which are commercially available from RND Systems for around USD 200 each. A time course and kinetics experiment will be performed for each antagonist to optimize incubation length and concentration. TL leukocytes (n=6) will be inhibited with each antagonist using these optimized parameters, and the resulting number of leukocytes that undergo chemotaxis to TL chemoattractant in our LMA will be compared to control (i.e. non-treated leukocytes).

For assay [2], the target named is T2, CXCR2 (Homo sapiens, UniProt P25025).
T2 construct: Whole blood is collected from a pregnant person into an EDTA-coated collection tube; endogenous in cells; host or cells: total peripheral leukocytes from pregnant women in term labour
T2 sequence (P25025 1-360): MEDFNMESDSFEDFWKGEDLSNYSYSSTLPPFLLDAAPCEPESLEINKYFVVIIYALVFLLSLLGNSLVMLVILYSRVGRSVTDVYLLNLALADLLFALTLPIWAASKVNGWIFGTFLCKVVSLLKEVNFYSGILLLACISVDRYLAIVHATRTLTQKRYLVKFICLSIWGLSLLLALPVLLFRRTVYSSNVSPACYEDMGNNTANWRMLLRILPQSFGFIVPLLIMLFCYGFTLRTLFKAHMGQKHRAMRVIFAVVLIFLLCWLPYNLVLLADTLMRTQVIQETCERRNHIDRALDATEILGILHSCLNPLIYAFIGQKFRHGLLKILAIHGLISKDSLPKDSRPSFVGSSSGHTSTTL
Briefly: Term leukocyte chemotaxis towards TL homogenized extracts (LMA), CXCR2 inhibition. To be noted: increasing concentrations, FIG. 18. The assay is classed as cell-based. As to the method: as §1, §2

As for `CC[N+]1(C/C2=C/CCCCCC2)CCC(NC(=O)C2c3cc(Cl)ccc3Oc3ccc(Cl)cc32)CC1.[I-]` (centres unmarked) [J113863], the term leukocyte migration entry in assay [1] is “decrease leukocyte migration”.

Consider `O=C(Nc1ccc([N+](=O)[O-])cc1O)Nc1ccccc1Br` [SB225002], for which, in assay [2], the term leukocyte migration entry is “decrease leukocyte migration”.

Values taken from patent US20240302368A1, “MIGRATION OF HUMAN PERIPHERAL LEUKOCYTES IN RESPONSE TO CHEMOTACTIC FACTORS DURING PREGNACY” (The Governors of the University of Alberta, priority 2021, published 2024).
